{"source": "paper PMC4750079", "about": "“Tackling amyloidogenesis in Alzheimer’s disease with A2V variants of Amyloid-β” (Scientific Reports, 2016)", "key": {"OP50 E. coli": {"test_system": "OP50 E. coli", "conditions": "peptide 1 µg/µl, 24 h, 25 °C and 37 °C, MALDI TOF MS, small fraction cleaved at Gly 11", "experimental": "(§1) The stability of Aβ1-6A2VTAT(D) peptide to protease digestion was also investigated. To this end, the peptide (1µg/µl) was incubated at 37 °C with 10 ng/µl of proteinase K and in the presence of OP50 E. coli. […] Samples were potted on a metallic plate (MTP 384 Ground Steel, Bruker) before and 24 h after incubation at 25 °C and 37 °C, and analyzed by MALDI TOF mass spectrometry (MS)."}, "proteinase K": {"biological_target": "proteinase K (Parengyodontium album, UniProt P06873)", "sequence (P06873 106-384, species assumed)": "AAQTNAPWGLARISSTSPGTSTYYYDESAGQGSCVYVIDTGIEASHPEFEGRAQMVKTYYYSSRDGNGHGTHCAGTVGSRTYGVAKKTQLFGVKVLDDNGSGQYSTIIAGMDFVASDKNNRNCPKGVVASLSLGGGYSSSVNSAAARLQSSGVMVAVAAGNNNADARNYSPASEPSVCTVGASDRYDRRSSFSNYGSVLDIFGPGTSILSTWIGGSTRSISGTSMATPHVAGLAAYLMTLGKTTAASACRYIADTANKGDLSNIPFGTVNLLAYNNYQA", "conditions": "peptide 1 µg/µl, 10 ng/µl proteinase K, 24 h, 25 °C and 37 °C, MALDI TOF MS; small fraction cleaved at Gly 11", "experimental": "as §1"}, "huAPPSwe/moAPP0/0 mice": {"test_system": "huAPPSwe/moAPP0/0 mice", "test": "Pilot preclinical study in huAPPSwe/moAPP0/0 mice", "format": "in vivo, mouse", "experimental": "Transgenic APP23 mice expressing the Swedish double mutation in the human APP gene[46] and knock-out for endogenous APP (huAPP^Swe/moAPP^0/0) were generated in our lab by crossing APP23 mice with APP^0/0 animals. Mice (n = 6) were treated intraperitoneally (i.p.) every day for 21 days with Aβ1-6A2VTAT(D) (10 mg/kg) or saline solution and culled 24 h after the last treatment.\nThe left hemisphere of each brain was homogenized in 7 volumes of 10 mM Tris-HCl, pH 7.4, added with cOmplete Mini Protease Inhibitors cocktail (Roche), sonicated for 1 min using an ultrasonic homogenizer (SONOPULS) and centrifuged at 100,000 xg for 1 h at 4 °C. The supernatant was saved as the soluble fraction; the pellet was extracted in 70% formic acid and neutralized with 20 volumes of 1 M Tris (insoluble fraction).\nAβ40, Aβ42 and aggregated Aβ were measured in both soluble and insoluble fractions by ELISA (Invitrogen). Each experiment was performed in triplicate. The analysis of APP processing followed the protocol described above. After centrifugation, the supernatant was collected as the SDS-soluble fraction, which was analyzed by western blot with the A8717 antibody (Sigma). Signal intensity of the bands was measured by Quantity One (BioRad).\nCoronal slices of the right hemibrain were embedded in paraffin and cut (7μm); sections were de-waxed in xylene and hydrated through serial alcohols to water. After formic acid (80%) pre-treatment, sections were incubated overnight with anti-Aβ antibody (4G8, 1:4000; Covance). The primary antibody signal was detected with a biotinylated secondary antibody followed by horseradish streptavidin peroxidase and visualized with DAB. Amyloid deposition was quantified in mouse brain using Aβ immunostaining (4G8) and the staining intensity was evaluated semiquantitatively using a scale range from 0 to 5 by light microscopy. The assessment was conducted in two adjacent sections of the same brain area[49]. A parallel quantification of the Aβ plaque load was performed using image analysis software (NIS-elements-Nikon)[50][51][52]."}, "Aβ1-42WT": {"biological_target": "T1, Aβ1-42WT (Homo sapiens, UniProt P05067)", "T1 construct": "Aβ1-42WT oligomers were formed following incubation of Aβ1-42WT at a final concentration of 100 μM; made in house; host or cells: chemical synthesis (solid-phase Fmoc), no expression host", "T1 sequence (P05067 672-713 limits assumed)": "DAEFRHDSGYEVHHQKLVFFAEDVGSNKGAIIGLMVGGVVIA", "test": "CD spectroscopy of Aβ1-42WT secondary structure", "format": "biochemical", "conditions": "data not shown"}, "[1]": {"test_system": "Aβ1-42WT toxicity in SH-SY5Y cells", "test": "Inhibition of the toxicity induced by Aβ1-42WT in SH-SY5Y cell cultures (MTT test)", "format": "cell-based, human", "conditions": "differentiated SH-SY5Y, co-incubated with Aβ1-42WT, 24 h", "experimental": "Figure 2 Analysis of the effects of Aβ1-6WT(D), Aβ1-6A2V(D) and Aβ1-6A2VTAT(D) on neurotoxicity in cell models. SH-SY5Y cells were differentiated with 10 μM retinoic acid. After 6 days the proper peptide was added to culture medium and cell viability was assessed after 24 h by MTT test. […] Conversely, Aβ1-42WT reduces cell viability by 35%. * Significance vs non-treated cells. (C,D) Both Aβ1-6WT(D) and Aβ1-6A2V(D) are able to counteract the toxic effect of Aβ1-42WT. […] Comparison of cell viability was performed by Student t-test.\n(§2) Toxicity studies with Aβ1-6WT(D), Aβ1-6A2V(D) or Aβ1-6A2VTAT(D) and the short peptides’ ability to inhibit the toxicity induced by Aβ1-42WT in SH-SY5Y cell cultures were analyzed following previously described protocols. Each experiment was performed in triplicate; the data provided were obtained as the mean of three independent assays."}, "SH-SY5Y cells": {"test_system": "SH-SY5Y cells", "test": "Toxicity of peptides on differentiated SH-SY5Y cells (MTT test)", "format": "cell-based, human", "conditions": "24 h", "experimental": "Figure 2 Analysis of the effects of Aβ1-6WT(D), Aβ1-6A2V(D) and Aβ1-6A2VTAT(D) on neurotoxicity in cell models. SH-SY5Y cells were differentiated with 10 μM retinoic acid. […] Comparison of cell viability was performed by Student t-test.\nas §2"}, "[2]": {"test": "Brain levels after intraperitoneal administration (HPLC-MS/MS)", "format": "in vivo", "conditions": "mice", "experimental": "APP23 mice (Harlan, Correzzana, Italy) were treated by intraperitoneal injection with Aβ1-6A2VTAT(D) (10 mg/kg) or vehicle (saline solution) and sacrificed 1 h or 24 h after the last treatment. Aβ1-6A2VTAT(D) was quantified in mouse brain using HPLC-MS/MS[45]. The stability of Aβ1-6A2VTAT(D) to protease digestion was also investigated by MALDI TOF MS (See Supplementary Information for details).\nTo verify Aβ1-6A2VTAT(D) distribution in vivo, and particularly its bioavailability in the brain, we determined Aβ1-6A2VTAT(D) levels in mice brains after i.p. injection at a dose of 10 mg/kg. Mice were sacrificed at two intervals (1 h, 24 h). Aβ1-6A2VTAT(D) was then quantified in mouse brain using HPLC-MS/MS.\nThe quantitative levels of Aβ1-6A2VTAT(D) in the brain were determined by following a previously described procedure ^4.\nSupplementary Figure 4S Aβ1-6A2VTAT(D) levels in mouse brain (n=4). Data are reported as mean ± SEM of peptide/mg tissue. Animals were treated i.p. at a dose of 10 mg/kg. Animals were sacrificed 1 h or 24 h after last administration following 21 […] treatments (*p < 0.05 T1-1h vs T1-24h and Student’s t-test)."}, "[3]": {"conditions": "i.p. daily for 21 days, vs saline, ELISA"}}, "note": "Where a SMILES comes first, the peptide text is derived from it. [ ]: non-standard residue; d: D form.", "data": [{"compound": "CC(C)[C@@H](NC(=O)[C@H](N)CC(=O)O)C(=O)N[C@H](CCC(=O)O)C(=O)N[C@H](Cc1ccccc1)C(=O)N[C@H](CCCNC(=N)N)C(=O)N[C@H](Cc1c[nH]cn1)C(=O)NCC(=O)NCC(=O)NCC(=O)NCC(=O)NCC(=O)N[C@H](CCCNC(=N)N)C(=O)N[C@H](CCCCN)C(=O)N[C@H](CCCCN)C(=O)N[C@H](CCCNC(=N)N)C(=O)N[C@H](CCCNC(=N)N)C(=O)N[C@H](CCC(N)=O)C(=O)N[C@H](CCCNC(=N)N)C(=O)N[C@H](CCCNC(=N)N)C(=O)N[C@H](CCCNC(=N)N)C(=O)O", "note": "[Aβ1-6A2VTAT(D)] (H-[dD][dV][dE][dF][dR][dH]GGGGG[dR][dK][dK][dR][dR][dQ][dR][dR][dR]-OH; N-terminus assumed)", "values": [{"measurement": "resistance to digestion with bacteria proteases", "setting": "OP50 E. coli", "value": "largely resistant"}, {"measurement": "resistance to digestion with proteinase K", "setting": "proteinase K", "value": "largely resistant"}, {"measurement": "intracerebral amyloid deposits", "setting": "huAPPSwe/moAPP0/0 mice; 13-month-old mice, i.p. once a day for 3 weeks, 4G8 immunohistochemistry, plaque count", "value": "decrease of intracerebral amyloid deposits"}, {"measurement": "effects on APP processing (C99:C83 ratio), short-term", "setting": "huAPPSwe/moAPP0/0 mice; after 3 weeks of treatment, western blot", "value": "not observed after short-term treatment schedules"}, {"measurement": "Aβ42 in the soluble fraction and Aβ40, Aβ42 and aggregated Aβ in the insoluble fraction", "setting": "huAPPSwe/moAPP0/0 mice; [3]", "value": "not significantly lower"}, {"measurement": "brain Aβ40 levels in the soluble fraction", "setting": "huAPPSwe/moAPP0/0 mice; [3]", "value": "reduction of Aβ40 levels in the soluble fraction"}, {"measurement": "brain aggregated Aβ (soluble fraction)", "setting": "huAPPSwe/moAPP0/0 mice; [3]", "value": "decrease in aggregated Aβ"}, {"measurement": "acquisition of β-sheet conformation by Aβ1-42WT", "setting": "Aβ1-42WT", "value": "inhibits the acquisition of β-sheet conformation by Aβ1-42WT"}, {"measurement": "effect on toxicity induced by Aβ1-42WT", "setting": "[1]", "value": "significant dose-dependent reduction of the toxicity"}, {"measurement": "toxicity at concentrations between 1 and 5 μM", "setting": "SH-SY5Y cells; 1 to 5 μM", "value": "not toxic"}, {"measurement": "toxicity at concentrations higher than 5 μM", "setting": "SH-SY5Y cells; higher concentrations", "value": "reduces cell viability at higher concentrations"}, {"measurement": "tissue level at time at 1 h", "setting": "[2]; APP23, mouse, brain, ip, i.p. 10 mg/kg once a week for five months (21 weekly treatments), 1 h, HPLC-MS/MS, mean ± SEM, n=4, read-out: brain levels 1 h after last treatment", "value": "145 ± 38.3", "unit": "ng/g"}, {"measurement": "tissue level at time at 24 h", "setting": "[2]; APP23, mouse, brain, ip, i.p. 10 mg/kg once a week for five months (21 weekly treatments), 24 h, HPLC-MS/MS, mean ± SEM, n=4, read-out: brain levels 24 h after last treatment", "value": "62 ± 28.7", "unit": "ng/g"}, {"measurement": "ability to cross the BBB", "setting": "[2]; i.p. administration", "value": "able to cross the BBB"}]}]}
